Measurements taken from patent US7838536B2, “Water-soluble zinc ionophores, zinc chelators, and/or zinc complexes and use for treating cancer” (priority 2006, dated 2010).
Like-named read-outs stand apart in the source and are kept apart here.

Experiments:
[1] = system: DU145 prostate cancer cells; conditions: DU145 xenograft, intravenous 60 μmol/kg q.d.×4, formulated in 30% THPB-P beta-cyclodextrin vehicle, FIG. 31
Experimental: (§1) Human cell lines (A549 lung carcinoma, PC3 and DU145 prostatic carcinoma, and potentially others) were used. Mice received XRT (whole body radiation) up to 2 days prior to inoculation to minimize tumor regression due to residual immunological systems. The animal was administered a sub-lethal dose of whole body radiation of up to 4.5 Gy. The published literature indicates the LD50/30 dose for whole body radiation in the mouse to be 6.2 Gy. At the time of tumor implantation, mice were anesthetized by isoflurane inhalation or by IP injection of a ketamine/xylazine cocktail. Using vernier calipers, tumor size was measured; and tumor volume calculated on day 0 of study, at a minimum of 2-3 times/week and immediately prior to scheduled sacrifice. The tumor volume was estimated using the formula for a prolate ellipsoid: V=[(length)×(width)^2]/2 or hemi-ellipsoid: V=π/6×(length)×(width)×(height). When tumors reached a predetermined tumor volume animals were divided into treatment groups followed by test/control article dosing. Maximum allowable tumor burden prior to sacrifice is a mean surface diameter of 20 mm or not more than 10% of the animal's body weight as described in the NIH tumor burden guidelines for mice.

[2] = zinc binding motif, well known; cited from earlier work
[3] = system: A549 human lung cancer cells; conditions: A549 xenograft, FIG. 28
Experimental: as §1

[4] = mouse, in vivo
[5] = system: PC3 prostate cancer cells; conditions: PC3 xenograft
Experimental: as §1
In this example, the ionophore was formulated in 5% mannitol.

cancer cells [6] = conditions: reported; cited from earlier work
[7] = system: cell lines including A549 lung, PC3 prostate, K1 and E89 Chinese hamster ovary (CHO), Ramos, DHL-4, and HF-1 B-cell lymphoma; experiment: standard tetrazolide reduction proliferation assay; assay type: cell-based; conditions: ZnHPT formed in situ from HPT and zinc
Experimental: The proliferation of exponential phase cultures of A549 and PC3 cells is assessed by formazan reduction. In brief, A549 (2000 cells/well) or PC3 (4000 cells/well) cells are seeded on 96-well microtiter plates and allowed to adhere overnight. Stock solutions of ZnHPT or PEGZnHPT in medium are serial diluted in a ratio of 1:4 down the plate. Stock solutions of MGd or ZnOAc2 or 5% mannitol in ACS grade water are added and plates are incubated at 37° C. under a 5% CO2/95% air atmosphere. After 24 hours, medium is replaced with fresh medium. After 2 additional days, medium is exchanged for fresh medium (150 μL/well) supplemented with the tetrazolium dye, 3-(4,5-dimethylthiazol-2-yl)-2,5-diphenyltetrazolium bromide (MTT, Sigma Chemical, 0.5 mg/mL). Plates are incubated at 37° C. and viable cells measured. […] Alternatively cellular reduction within plateau phase cultures is measured after 24 hours of treatment as a measure of the cytotoxicity due to treatment.

thioredoxin reductase = conditions: cells co-treated with MGd and ZnHPT, previously found
Experimental: Thioredoxin reductase activity is assessed by measuring the rate of lipoate reduction. In brief, A549 or PC3 cells (10,000 cells/well) are plated on 96-well plates and allowed to adhere overnight and grow two additional days until confluent. Cells are treated with ZnHPT, PEGZnHPT, MGd, zinc, or 5% mannitol as above for 4 hours. Medium is removed, cells are washed with Hanks Balanced Salt Solution (HBSS), and a solution of 5 mM lipoic acid and 1 mM 5,5′-dithiobis(2-nitrobenzoic acid) in HBSS (100 μL/well) is added. Plates are incubated at ambient temperature in the dark. At chosen time intervals, plate absorbance is measured at 405-650 nm. Plate absorbances are normalized to wells containing neither exogenous zinc nor texaphyrin complex to allow plate-to-plate comparison.

[8] = cited from earlier work
cancer cells [9] = experiment: intracellular free zinc in cancer cells; assay type: cell-based; conditions: previously found
Experimental: The concentration of intracellular free zinc is assessed using the ion-specific fluorescent probe, FluoZin-3-AM-(FluoZin-3, Molecular Probes, Inc.). […] Following treatment, cells are isolated by centrifugation. Cell pellets are washed and re-suspended in a solution of 0.5% BSA in PBS. An aliquot of 10^6 cells (200 μL) is removed, centrifuged, and treated with FluoZin-3 reaction buffer An aliquot of the cell suspension is supplemented with 2 μg/mL propidium iodide (Sigma Biochemical), incubated for 5 minutes, and subjected to two-parameter flow cytometric analysis. See, e.g., FIG. 27.

In the case of “2-thiol-5-((2-methoxyethoxy)methyl)pyridine-N-oxide, Zn complex [5-PEG-[1]-ZnHPT]”, the “anticancer activity (tumor regrowth) as compared to control vehicle” value [1] is reported as “significant anticancer activity”.
In the case of Zinquin, the logKβ2 [2] is given as “ca. 18”.
With `COCCOCCOCCOCc1ccc([S-])[n+]([O-])c1.COCCOCCOCCOCc1ccc([S-])[n+]([O-])c1.[Zn+2]` [5-PEG-[3]-ZnHPT, 2-thiol-5-((2-(2-(2-methoxyethoxy)ethoxy)ethoxy)methyl)pyridine-N-oxide, Zn complex] the “anticancer activity (tumor regrowth)” value ([3]; in combination with MGd) was “significant anticancer activity”, the “anticancer activity (tumor regrowth)” value ([3]; without MGd) was “significant anticancer activity” and the “maximum tested without evidence of toxicity” value [4] was at least 120 µmol/kg. The “anticancer activity (tumor regrowth)” value ([5]; FIG. 29) was “significant anticancer activity”.
In the case of `On1ccccc1=S` [ZnHPT, 1-hydroxypyridine-2-thione], the “growth of cancer cells in culture” value (cancer cells [6]) is listed as “inhibit the growth of cancer cells in culture”, the inhibition of proliferation [7] is listed as “inhibits proliferation in a dose dependent manner” and the “inhibition of thioredoxin reductase” value (thioredoxin reductase) is listed as “synergistic inhibition”. The bioavailability ([8]; oral, typically formulated as a suspension in vegetable oil) was “poorly bioavailable” and the “toxicity on oral administration” value ([8]; orally administered to laboratory animals) was “not found to be particularly toxic”.
For `On1ccccc1=S` [HPT], the logKβ2 [2] is listed as 5.4.
For “2-thiol-5-((2-(2-methoxyethoxy)ethoxy)methyl)pyridine-N-oxide, Zn complex [5-PEG-[2]-ZnHPT]”, the “anticancer activity (tumor regrowth) as compared to control vehicle” value ([5]; intravenous 100 μmol/kg q.d.×2 and q.d.×4, formulated in 5% mannitol, FIG. 30) was “significant anticancer activity”.
With `CC(=O)[O-].CC(=O)[O-].CCc1c(CC)c2cc3nc(cnc4cc(OCCOCCOCCOC)c(OCCOCCOCCOC)cc4ncc4nc(cc1[n-]2)C(CCCO)=C4C)C(C)=C3CCCO.O.[Gd+3]` [MGd, motexafin gadolinium] the intracellular free zinc (cancer cells [9]) was “increased intracellular free zinc”.
